Where “and” joins values, the source holds several entries; their conditions need not be identical. Equal values may be shown once.
Experiments:
[1] = tested on: human immunodeficiency virus HIV-1 (LAI); format: cell-based
[2] = tested on: human immunodeficiency virus HIV-1 (LAI); format: cell-based; settings: 0.01 mg/ml
[3] = tested on: clinical isolates of MRSA and MSSA, Staphylococcus aureus ATCC 43300 and ATCC 29213; format: cell-based; settings: for MIC of the antibiotic alone: before combination with FS-1
[4] = tested on: influenza virus strain A/FPV/Rostock/34; parameters: species or system chickens; settings: in vivo

## Cc1cn([C@H]2C[C@H](N=[N+]=[N-])[C@@H](CO)O2)c(=O)[nH]c1=O [azidothymidine]
[1]; 0.01 mg/ml
  Extinction factor (p24): 0.0446 ± 0.003187
[1]; FS-1 0.188 and 0.094 mg/ml, azidothymidine 0.01 mg/ml
  Decrease of p24 protein compared to placebo: 60 times
[2]
  Decrease of reverse transcriptase content compared with negative control: 5 times
  Extinction factor (reverse transcriptase): 0.5724 ± 0.005464

## Cc1onc(-c2ccccc2)c1C(=O)N[C@@H]1C(=O)N2[C@@H]1SC(C)(C)[C@@H]2C(=O)O [oxacillin]
[3]
  MIC of the antibiotic in combination with FS-1: 64 µg/mL
  MIC of the antibiotic alone: 256 µg/mL

## Cn1nnnc1SCC1=C(C(=O)O)N2C(=O)[C@@H](NC(=O)[C@H](O)c3ccccc3)[C@H]2SC1 [cefamandole]
[3]
  MIC of the antibiotic in combination with FS-1: 8 µg/mL
  MIC of the antibiotic alone: 64 µg/mL

## CC(N)C12CC3CC(CC(C3)C1)C2 (stereo not shown) [Rimantadine]
[4]
  Number of chickens that died: 10 and 8
  Number of survived chickens: 4 and 6
  Survival %: 28.6 ± 12.53% and 42.9 ± 13.73%

## CCC[C@@H]1C[C@@H](C(=O)N[C@@H]([C@H]2O[C@H](SC)[C@H](O)[C@@H](O)[C@H]2O)[C@@H](C)O)N(C)C1 [lincomycin]
[3]
  MIC of the antibiotic in combination with FS-1: 8 µg/mL
  MIC of the antibiotic alone: 64 µg/mL
